Test results as given in patent US9487553B2, “Boranophosphate analogues of cyclic nucleotides” (BIOLOG LIFE SCIENCE INSTITUTE FORSCHUNGSLABOR UND …, priority 2011, dated 2016).
pEC50: −log10 of the molar value.

Key:
[1] = Degradation Example 5: oxidation with hydrogen peroxide, monitored by HPLC; assay type: physicochemical; conditions: after 1 hour at RT
Protocol: Thus, the cyclic boranophosphate 6-chloropurine-1-β-D-ribofuranoside-3′,5′-cyclic boranophosphate, Rp-isomer (Rp-6-Cl-cPuMPB, example 42) together with the corresponding phosphorothioate 6-chloropurine-1-β-D-ribofuranoside-3′,5′-cyclic phosphorothioate, Sp-isomer (Sp-6-Cl-cPuMPS, Biolog) as a control were treated repeatedly with μl doses of 30% aqueous hydrogen peroxide (Merck). During one hour, oxidative degradation was monitored by HPLC (RP-18, 15 Vol.-% acetonitrile, 20 mM triethylammonium formate buffer, pH 6.5, 2 ml/min., UV 263 nm) and corresponding peak areas were recorded, integrated and compared (Tab. 3).

PDE 1 = test: Resistance towards phosphodiesterase: incubation with PDE 1 from bovine heart, HPLC; conditions: bovine, pH 7.2
Protocol: (§1) For this purpose 0.1 μmol of Rp-8-bromoadenosine-3′,5′-cyclic boranophosphate (example 1) and Sp-8-bromoadenosine-3′,5′-cyclic boranophosphate […] dissolved in TRIS buffer pH 7.2 containing calcium chloride and calmodulin and incubated with PDE type I from bovine brain (Sigma-Aldrich) at 37° C. Activity of the enzyme was checked by hydrolysis of cyclic AMP. Stability was monitored by HPLC (RP-18, 11 Vol.-% propanol-2, 20 mM TEAF buffer, pH 6.8, 1 ml/min., UV 264 nm). […] This strategy of testing PDE performance was applied accordingly in degradation examples 10 and 11.
(§2) Thus, Rp-8-Br-cAMPB (example 1) and Sp-8-Br-cAMPS (Biolog, Bremen/Germany) were incubated with PDE 1 from bovine heart (Sigma-Aldrich) and monitored by HPLC as described above.
(§3) Rp-2′-O-Me-cAMPB (example 7) and Sp-2′-O-Me-cAMPS (Biolog, Bremen/Germany).

[2] = target: protein kinase A type II alpha holoenzyme (Homo sapiens, UniProt P13861); test: Photometric (Cook) assay with protein kinase A type II alpha holoenzyme; assay type: biochemical; conditions: activation of protein kinase A type II; data not shown
Source text: In another similar experiment the properties of Rp- and Sp-8-Br-cAMPB towards protein kinase A type II a were investigated in the photometric assay (Cook, P. F., Neville, M. E., Jr., Vrana, K. E., Hartl, F. T. and Roskoski, R., Jr., Biochemistry 21, 5794-5799 (1982))

[3] = Degradation Example 6: oxidation with hydrogen peroxide, monitored by HPLC; assay type: physicochemical; conditions: after 1 hour at RT
Protocol: Thus, 0.1 μmol of the cyclic boranophosphate 2-chloroadenosine-3′,5′-cyclic boranophosphate, Sp-isomer (Sp-2-Cl-cAMPB, example 71) and 0.1 μmol of the corresponding phosphorothioate 2-chloroadenosine-3′,5′-cyclic phosphorothioate, Rp-isomer (Rp-2-Cl-cAMPS, Biolog) as a control, were each dissolved in 100 μl of water, combined and treated with 10 μl of 30% aqueous hydrogen peroxide (Merck), and another 10 μl after one hour. During 2.5 hours, oxidative degradation was monitored by HPLC (RP-18, 15 Vol.-% acetonitrile, 20 mM triethylammonium formate buffer, pH 6.5, 1.5 ml/min., UV 262 nm). Corresponding peak areas were recorded, integrated and compared (Tab. 5).

[4] = Degradation Example 8: oxidation with hydrogen peroxide, monitored by HPLC; assay type: physicochemical; conditions: after 1 hour at RT
Protocol: Finally, with the Sp-isomer of 8-bromoguanosine-3′,5′-cyclic boranophosphate (Sp-8-Br-cGMPB, example 6) also the oxidative stability of a cyclic boranophosphate with a modified guanine nucleobase was investigated and again compared to the corresponding phosphorothioate Rp-8-bromoguanosine-3′,5′-cyclic phosphorothioate (Rp-8-Br-cGMPS, Biolog).
Both compounds were treated together with two 10 μl doses of 30% aqueous hydrogen peroxide (Merck). During more than four hours, oxidative degradation was monitored by HPLC (RP-18, 15 Vol.-% acetonitrile, 20 mM triethylammonium formate buffer, pH 6.5, 1.5 ml/min., UV 263 nm) and corresponding peak areas were recorded and compared (Tab. 7).

[5] = system: PDE type I from bovine brain; test: Resistance towards phosphodiesterase: incubation with PDE type I from bovine brain, HPLC; conditions: PDE type I from bovine brain, 37° C., up to 8 days
Protocol: Activity of the enzyme was checked by hydrolysis of cyclic AMP. Stability was monitored by HPLC (RP-18, 11 Vol.-% propanol-2, 20 mM TEAF buffer, pH 6.8, 1 ml/min., UV 264 nm).

PDE 1 from bovine heart = test: Resistance towards phosphodiesterase: incubation with PDE 1 from bovine heart, HPLC; conditions: PDE 1 from bovine heart, up to 8 days of incubation
Protocol: as §1, §2, §3

PDE IV (A4B) = target: T1, PDE IV (A4B) (Homo sapiens, UniProt P27815); test: Stability against PDE IV, HPLC; assay type: in vitro ADME; conditions: several days
T1 construct: Houslay lab, Glasgow/Scotland (obtained from another laboratory)
Protocol: Next, stability of the disclosed boranophosphates against PDE IV (A4B, Houslay lab, Glasgow/Scotland) was tested in similar experiments as described above.

[6] = target: protein kinase A type I alpha holoenzyme (Homo sapiens, UniProt P10644); test: Standard photometric (Cook) assay with protein kinase A type I alpha holoenzyme; assay type: biochemical; conditions: holoenzyme RIα
Source text: In a first experiment, the biological activity of the Rp- and Sp-isomer of 8-bromoadenosine-3′,5′-cyclic boranophosphate (examples 1 and 2) has been tested with the holoenzyme of protein kinase A type I alpha (FIGS. 3 and 4) using a standard photometric assay (Cook, P. F.; Neville, M. E., Jr.; Vrana, K. E.; Hartl, F. T. and Roskoski, R., Jr., Biochemistry 21, 5794-5799 (1982)).
As a control, two boranophosphate analogues with a 2′-O-methyl modification (Rp-2′-O-Me-cAMPB and Sp-2′-O-Me-cAMPB, examples 7 & 8) have been tested by the same type of assay with protein kinase A type I alpha as well.
FIG. 5 depicts the activity overview of four different cyclic boranophosphate analogues with protein kinase A type I alpha holoenzyme. 9108: Sp-2′-O-Me-cAMPB; 9109: Rp-2′-O-Me-cAMPB; 9110: Sp-8-Br-cAMPB; 9111: Rp-8-Br-cAMPB; controls: B 001: Rp-8-Br-cAMPS. Control: cAMP. “Cook Assay” with Holoenzyme RIα.

[7] = target: T2, protein kinase G type I α, activated by cGMP (Homo sapiens, UniProt Q13976); test: Suppression of cGMP-stimulated protein kinase G type I alpha activity; assay type: biochemical; conditions: 10 nM, 100 nM and 1 μM; cGMP 200 nM
T2 sequence (Q13976 1-671): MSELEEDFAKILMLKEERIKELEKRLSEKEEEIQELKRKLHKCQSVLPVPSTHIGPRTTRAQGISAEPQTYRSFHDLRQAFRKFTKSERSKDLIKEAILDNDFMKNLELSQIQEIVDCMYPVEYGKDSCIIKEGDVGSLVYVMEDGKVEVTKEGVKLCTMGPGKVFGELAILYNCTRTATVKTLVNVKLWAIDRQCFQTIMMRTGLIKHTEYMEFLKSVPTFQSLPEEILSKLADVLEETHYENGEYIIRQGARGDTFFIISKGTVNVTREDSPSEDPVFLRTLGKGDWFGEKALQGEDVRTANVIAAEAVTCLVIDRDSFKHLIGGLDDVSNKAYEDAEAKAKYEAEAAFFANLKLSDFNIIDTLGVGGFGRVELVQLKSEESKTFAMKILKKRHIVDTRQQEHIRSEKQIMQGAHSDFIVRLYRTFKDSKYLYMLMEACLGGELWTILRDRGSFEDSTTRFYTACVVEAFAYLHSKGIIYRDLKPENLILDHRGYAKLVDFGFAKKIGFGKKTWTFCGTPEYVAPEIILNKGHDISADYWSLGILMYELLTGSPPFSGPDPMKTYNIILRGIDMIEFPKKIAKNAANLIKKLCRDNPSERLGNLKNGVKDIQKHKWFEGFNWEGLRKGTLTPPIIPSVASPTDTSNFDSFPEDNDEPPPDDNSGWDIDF

[8] = Degradation Example 4: oxidation with hydrogen peroxide, monitored by HPLC; assay type: physicochemical; conditions: after 3 hours at RT
Protocol: As a control, the corresponding cyclic nucleotide with phosphorothioate modification (Rp-8-BT-2′-O-Me-cAMPS, Biolog) had been added. The oxidation process was monitored by reversed phase HPLC (RP-18, 30 Vol.-% acetonitrile, 20 mM triethylammonium formate buffer, pH 8.3, 2 ml/min, UV 282 nm). The areas of both peaks were recorded, integrated and compared (Tab. 2).

T1 sequence (P27815 whole entry): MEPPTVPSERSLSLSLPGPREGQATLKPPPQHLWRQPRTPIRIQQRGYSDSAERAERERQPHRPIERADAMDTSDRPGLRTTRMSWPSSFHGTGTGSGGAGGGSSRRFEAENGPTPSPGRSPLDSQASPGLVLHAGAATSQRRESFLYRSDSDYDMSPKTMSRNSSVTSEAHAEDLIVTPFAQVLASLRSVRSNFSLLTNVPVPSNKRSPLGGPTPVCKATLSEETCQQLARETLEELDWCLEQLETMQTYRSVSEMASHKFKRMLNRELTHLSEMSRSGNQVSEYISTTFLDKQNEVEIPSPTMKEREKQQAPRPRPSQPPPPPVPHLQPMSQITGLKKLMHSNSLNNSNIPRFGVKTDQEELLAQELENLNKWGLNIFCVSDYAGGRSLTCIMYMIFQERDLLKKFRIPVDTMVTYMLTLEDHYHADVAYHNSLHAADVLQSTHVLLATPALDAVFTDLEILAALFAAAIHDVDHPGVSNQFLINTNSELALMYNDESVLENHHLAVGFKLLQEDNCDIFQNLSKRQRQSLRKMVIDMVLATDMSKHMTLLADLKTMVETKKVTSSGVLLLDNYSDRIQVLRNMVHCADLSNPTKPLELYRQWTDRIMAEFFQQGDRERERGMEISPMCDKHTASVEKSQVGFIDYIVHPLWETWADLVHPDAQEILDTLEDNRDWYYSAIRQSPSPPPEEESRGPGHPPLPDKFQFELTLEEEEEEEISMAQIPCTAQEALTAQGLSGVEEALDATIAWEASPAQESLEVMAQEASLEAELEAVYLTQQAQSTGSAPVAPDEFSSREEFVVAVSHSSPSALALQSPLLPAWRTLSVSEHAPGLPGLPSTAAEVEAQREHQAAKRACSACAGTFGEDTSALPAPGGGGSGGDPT
protein kinase A type II alpha holoenzyme, sequence (P13861 whole entry): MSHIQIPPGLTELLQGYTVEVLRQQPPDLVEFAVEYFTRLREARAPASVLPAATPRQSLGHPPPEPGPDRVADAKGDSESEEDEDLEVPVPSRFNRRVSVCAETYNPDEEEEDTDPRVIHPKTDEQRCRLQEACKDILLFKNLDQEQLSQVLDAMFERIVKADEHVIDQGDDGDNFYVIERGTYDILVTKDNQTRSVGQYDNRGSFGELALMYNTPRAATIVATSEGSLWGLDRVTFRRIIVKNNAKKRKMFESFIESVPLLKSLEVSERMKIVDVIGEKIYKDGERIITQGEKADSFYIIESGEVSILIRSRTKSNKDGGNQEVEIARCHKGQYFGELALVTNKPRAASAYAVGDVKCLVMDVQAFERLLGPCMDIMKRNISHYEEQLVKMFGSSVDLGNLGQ
protein kinase A type I alpha holoenzyme, sequence (P10644 whole entry): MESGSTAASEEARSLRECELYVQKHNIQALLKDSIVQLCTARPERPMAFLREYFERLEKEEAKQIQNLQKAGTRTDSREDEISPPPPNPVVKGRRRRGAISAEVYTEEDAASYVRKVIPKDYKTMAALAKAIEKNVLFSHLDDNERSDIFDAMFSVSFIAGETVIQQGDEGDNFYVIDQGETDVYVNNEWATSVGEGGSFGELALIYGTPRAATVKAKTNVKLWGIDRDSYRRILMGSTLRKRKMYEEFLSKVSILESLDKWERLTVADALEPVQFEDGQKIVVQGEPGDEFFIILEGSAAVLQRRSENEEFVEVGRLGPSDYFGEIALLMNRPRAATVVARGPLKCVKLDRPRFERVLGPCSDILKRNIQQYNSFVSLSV

Compound: O[C@@H]1[C@@H]2OP(O)(=S)OC[C@H]2O[C@H]1n1cnc2c(Cl)ncnc21 (single isomer, unassigned) [Sp-6-Cl-cPuMPS, 6-chloropurine-1-β-D-ribofuranoside-3′,5′-cyclic phosphorothioate, Sp-isomer, reference compound]
- degraded [1]: 37%

Compound: Nc1ncnc2c1nc(Br)n2C1OC2COP(O)(=S)OC2C1O (centres unmarked) [Sp-8-Br-cAMPS, Sp-8-bromoadenosine-3′,5′-cyclic phosphorothioate, reference compound]
- half-life (PDE 1): ~50 h
- pEC50 [2]: 6.15

Compound: 2-Chloroadenosine-3′,5′-cyclic boranophosphate, Rp-isomer [Rp-2-Cl-cAMPB]
- peak area, % of the original area [3]: 90%

Compound: Nc1nc(Cl)nc2c1ncn2[C@@H]1O[C@@H]2COP(O)(=S)OC2[C@@H]1O (single isomer, unassigned) [Rp-2-Cl-cAMPS, 2-chloroadenosine-3′,5′-cyclic phosphorothioate, Rp-isomer, reference compound]
- degraded [3]: 22%

Compound: Nc1nc2c(nc(Br)n2[C@@H]2O[C@@H]3COP(O)(=S)O[C@H]3[C@H]2O)c(=O)[nH]1 (some centres unmarked) [Rp-8-Br-cGMPS, Rp-8-bromoguanosine-3′,5′-cyclic phosphorothioate, reference compound]
- degraded [4]: 15%

Compound: 6-Chloropurine-1-β-D-ribofuranoside-3′,5′-cyclic boranophosphate, Rp-isomer [Rp-6-Cl-cPuMPB]
- peak area, % of the original area [1]: 93%

Compound: B[PH]1(O)OC[C@H]2O[C@@H](n3cnc4c(N)ncnc43)C(OC)[C@@H]2O1 (stereo partly drawn) [Rp-2′-O-Me-cAMPB, 2′-O-Methyladenosine-3′,5′-cyclic boranophosphate, Rp-isomer]
- degradation by PDE [5]: stable over the whole assay period
- degradation by PDE (PDE 1 from bovine heart): stable over the whole assay period
- stability against PDE IV (PDE IV (A4B)): completely stable
- effect on protein kinase A type I alpha holoenzyme [6]: neither Rp- nor Sp-2′-O-Me-cAMPB did modulate the kinase in any way

Compound: B[PH]1(O)OC[C@H]2O[C@@H](n3c(Br)nc4c(=O)[nH]c(N)nc43)C(O)[C@@H]2O1 (stereo partly drawn) [Sp-8-Br-cGMPB, 8-Bromoguanosine-3′,5′-cyclic boranophosphate, Sp-isomer]
- peak area, % of the original area [4]: 65%
- antagonism of protein kinase G [7]: showed antagonistic potential

Compound: 8-Benzylthio-2′-O-methyladenosine-3′,5′-cyclic boranophosphate, SP-isomer [Sp-8-BT-2′-O-Me-cAMPB]
- peak area, % of the original area [8]: 73%
